Measurements: patent publication US6528655B1, “Aromatic derivatives with HIV integrase inhibitory properties” (Pharmacor, Inc., priority 2000, dated 2003)

The molecules below were run against HIV-1 integrase (Human immunodeficiency virus type 1 group M subtype B, UniProt P04585) (assay: HIV-1 integrase inhibition assay (radiolabeled duplex substrate corresponding to the U5 end of the HIV LTR)). Conditions: not given.
Assay type: biochemical
Procedure: For the purpose of Table 1 to 4, the HIV-1 integrase inhibition assay was carried out following a known procedure (Burke, Jr. T. R. et al., J. Med. Chem. 38, 4171-4178 (1995)). A suitable radiolabeled duplex substrate corresponding to the U5 end of the HIV LTR was used.
For the purposes of Table 1 to 4 the HIV-1 integrase inhibition assay was based on a known procedure (Hazuda, D. J. et al., Nucleic Acids Res. 22 1121-1122 (1994)).

| Structure (SMILES) | IC50 [nM] |
| --- | --- |
| Nc1cc(C(=O)N[C@H](Cc2cn(C(c3ccccc3)(c3ccccc3)c3ccccc3)cn2)C(=O)NCCc2ccc(O)c(O)c2)ccc1O [Example 2, N-[Nα-(3-Amino-4-hydroxybenzoyl)-Nτ-trityl-D-histidinyl]dopamine] | > 5000 |
| O=C(N[C@@H](CSC(c1ccccc1)(c1ccccc1)c1ccccc1)C(=O)NCCc1ccc(O)c(O)c1)c1c(O)cccc1F [Example 38, N-[Nα-(2-Fluoro-6-Hydroxybenzoyl)-S-trityl-L-cysteinyl]dopamine] | 1400 |
| Cc1ccc(C(NC(=O)CC[C@H](NC(=O)/C=C/c2ccc(O)c(O)c2)C(=O)Nc2nccs2)(c2ccccc2)c2ccccc2)cc1 [Example 90, N-(Nα-Caffeoyl-Nδ-methyltrityl-L-glutaminyl)thiazole-2-amine] | 834 |
| O=C(N[C@@H](Cc1cn(C(c2ccccc2)(c2ccccc2)c2ccccc2)cn1)C(=O)NCc1ccc(O)c(O)c1)c1cc(O)c2cccc(O)c2n1 [Example 70, N-[Nα-(4,8-Dihydroxyquinoline-2-carbonyl)-Nτ-trityl-L-histidinyl]-3,4-dihydroxybenzylamine] | 403 |
| O=C(/C=C/c1ccc(O)c(O)c1)NCCC[C@H](NC(=O)/C=C/c1ccc(O)c(O)c1)C(=O)NCCc1ccc(O)c(O)c1 [Example 11, N-(Nα,Nδ-Dicaffeoyl-L-ornithyl)dopamine] | 870 |
| O=C(N[C@@H](Cc1c[nH]c2ccccc12)C(=O)NCCc1ccc(O)c(O)c1)c1cc2cccc(O)c2cc1O [Example 59, N-[Nα-(3,5-Dihydroxynaphthyl-2-carbonyl)-L-tryptophanyl]dopamine] | 620 |
| O=C(N[C@@H](Cc1cn(C(c2ccccc2)(c2ccccc2)c2ccccc2)cn1)C(=O)NCCc1ccc(O)c(O)c1)c1ccc(O)cc1 [Example 52, N-[Nα-(4-Hydroxybenzoyl)-Nτ-trityl-L-histidinyl]dopamine] | 3300 |
| CC(C)(C)OC[C@H](NC(=O)Cc1cccs1)C(=O)NCCc1ccc(O)c(O)c1 [Example 87] | > 10000 |
| Cc1ccc(C(NC(=O)CC[C@H](NC(=O)/C=C/c2cccc([N+](=O)[O-])c2)C(=O)NCCc2ccc(O)c(O)c2)(c2ccccc2)c2ccccc2)cc1 [Example 50, N-[Nα-(3-Nitrocinnamoyl)-Nδ-methyltrityl-L-glutaminyl]dopamine] | 3950 |
| CC(C)(C)OC(=O)N[C@@H](Cc1cn(-c2ccc([N+](=O)[O-])cc2[N+](=O)[O-])cn1)C(=O)NCc1ccc(O)c(O)c1 [Example 24, N-[Nα-tert-Butoxycarbonyl-Nτ-(2,4-dinitrophenyl)-L-histidinyl]-3,4-dihydroxybenzylamine] | > 5000 |

Same assay, conditions: Table 1, compounds of formula II′; read-out: IC50

| Structure (SMILES) | IC50 [nM] |
| --- | --- |
| Cc1ccc(C(c2ccccc2)(c2ccccc2)n2cnc(C[C@H](NC(=O)c3ccc(O)c([N+](=O)[O-])c3)C(=O)NCCc3ccc(O)c(O)c3)c2)cc1 [Example 36, N-[Nα-(4-Hydroxy-3-nitrobenzoyl)-Nτ-methyltrityl-L-histidinyl]dopamine] | 575 |
